Test results from patent US20030086972A1, “Hydrogel-driven drug dosage form” (priority 2000, published 2003).
In brackets after ≈: the same amount, converted by molar mass. Counter-ions that a name gives are not always drawn. Like-named read-outs stand apart in the source and are kept apart here. Each block holds one compound with its values, some of them ahead of it.

Experiments:
[1] = Aqueous solubility of the drug
[2] = cited from earlier work

solubility ([1]; aqueous, pH 7.6, aqueous buffer): 400 µg/mL (≈ 785 µM)
Compound: COc1cc2nc(N3CCCN(C(=O)N4CCOCC4)CC3)cc(N)c2c(-c2ccc(F)cc2)c1OC [Drug 5, 4-amino-5-(4-fluorophenyl)-6,7-dimethoxy-2-[4-(morpholinocarbonyl)perhydro-1,4-diazepin-1-yl]quinoline]

Compound: 4-[3-[4-(2-methylimidazol-1 -yl) phenylthio]phenyl]-3,4,5,6-tetrahydro-2H-pyran-4-carboxamide hemifumarate [Drug 3]
solubility ([1]; pH 4): 3.7 mgA/mL

Compound: CN[C@H]1CC[C@@H](c2ccc(Cl)c(Cl)c2)c2ccccc21 [sertraline]
solubility (in words) ([2]; low pH): moderate solubility
solubility (in words) ([2]; pH of about 7.5): extremely low solubility
solubility (in words) ([2]; pH values above 5): low solubility

solubility ([1]; aqueous, pH 7, aqueous buffer): 200 µg/mL
Compound: CN[C@H]1CC[C@@H](c2ccc(Cl)c(Cl)c2)c2ccccc21 [Drug 2, sertraline HCl]
